Target: T1, BMAL1 (Homo sapiens, UniProt O00327)
Assay: ITC; also crystal structure ([…] Å), SPR (Kd […]), PTS (ΔTm […] °C), CETSA (EC50 […])
Assay type: binding
Set-up: PASB domain (338–449 amino acids)
Details: not given

T1 sequence (O00327 338-449): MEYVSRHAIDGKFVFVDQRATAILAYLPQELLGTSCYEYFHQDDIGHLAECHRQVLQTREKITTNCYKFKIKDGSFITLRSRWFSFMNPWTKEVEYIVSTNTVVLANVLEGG

SMILES | Kd
CCc1ccc(OCC(F)CO)c2occc12 (racemic) [compound 4, CCM] | 1990 ± 380 nM

Target: T1, BMAL1
Assay: not given
Set-up: PASB domain (residues 338–449); Protein thermal shift (PTS) fragment screen on recombinant human BMAL1(PASB), shift of melting temperature
Details: dTmB; binder

SMILES | Bmal1(PASB) dTmB
N#CCC(=O)N1CCCCC1 [Prestw-Frag-3730, Compound 302] | 0.12 °C
CCN(CC)C(=O)CC#N [Prestw-Frag-3731, Compound 282] | -0.04 °C
c1ccc2c(c1)NCCO2 [Prestw-Frag-3732, Compound 54] | 0.57 °C
CC(C)(CN)c1ccccc1 [Prestw-Frag-3733, Compound 285] | -0.30 °C
O=c1[nH]cncc1-c1ccccc1 [Prestw-Frag-3734, Compound 254] | -0.26 °C
Oc1ccccc1N1CCNCC1 [Prestw-Frag-3738, Compound 34] | 0.10 °C
COc1ccc2c(c1)CCC(C(=O)O)C2 (stereo not drawn) [Prestw-Frag-3739, Compound 163] | 0.52 °C
Cn1c(N)nc2ccccc21 [Prestw-Frag-3740, Compound 377] | -0.10 °C
OCc1ccc2c(c1)OCO2 [Prestw-Frag-3741, Compound 372] | -0.20 °C
Cc1nc(-c2ccccc2)cs1 [Prestw-Frag-3743, Compound 378] | -0.52 °C
c1ccc(-n2ccnc2)cc1 [Prestw-Frag-3744, Compound 409] | -0.78 °C
Cc1nc(-c2ccccc2F)cs1 [Prestw-Frag-3745, Compound 298] | -0.20 °C
NCCc1ccc(F)cc1F [Prestw-Frag-3746, Compound 138] | -0.34 °C
NCc1cscn1 [Prestw-Frag-3747, Compound 29] | -1.05 °C
NCCOCc1ccccc1 [Prestw-Frag-3749, Compound 335] | 0.05 °C
c1ccc2c(c1)CCNCC2 [Prestw-Frag-3750, Compound 343] | -0.06 °C
NCC1(c2ccccc2)CC1 [Prestw-Frag-3751, Compound 367] | -0.24 °C
Cc1[nH]cnc1CO [Prestw-Frag-3752, Compound 153] | 0.29 °C
c1ncc(C2CCNCC2)[nH]1 [Prestw-Frag-3753, Compound 303] | -0.23 °C
CC(=O)C1CCNCC1 [Prestw-Frag-3756, Compound 333] | -0.19 °C
CC1CCC(=O)O1 (stereo not drawn) [Prestw-Frag-3757, Compound 251] | -0.06 °C
c1ccc(-n2cccn2)cc1 [Prestw-Frag-3759, Compound 239] | -0.29 °C

Same assay, conditions: dTmB; binder; Bmal1(PASB) dTmB

SMILES | Bmal1(PASB) dTmB
CC1=NN(c2ccccc2)C(=O)C1 [Prestw-Frag-3742, Compound 81] | 1.77 °C

Reference: article PMC12037410, “Pharmacological targeting of BMAL1 modulates circadian and immune pathways” (Nature Chemical Biology, 2025)
